Measured values as given in PubChem BioAssay AID1552 (Sanford-Burnham Center for Chemical Genomics, 2009).
The source made the active and inactive calls. How the calls were made is not given here.

biological target: Ubiquitin-conjugating enzyme E2 N (Homo sapiens) (UniProt P61088); test: NMR detection of UBE2N ligand binding – biophysical, purified protein (AID 1552); conditions: NMR binding to purified UBE2N
Sequence (P61088 whole entry, looked up): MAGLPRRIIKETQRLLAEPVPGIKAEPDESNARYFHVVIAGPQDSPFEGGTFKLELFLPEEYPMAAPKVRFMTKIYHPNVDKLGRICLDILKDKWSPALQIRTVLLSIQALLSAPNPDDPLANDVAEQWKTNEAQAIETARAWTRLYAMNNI

| SMILES | Kd |
| --- | --- |
| O=C(Cc1c(F)cccc1Cl)Nc1ccon1 | > 4 mM (inactive) |
| C[C@@H]1CC[C@]2(C(=O)O)CC[C@]3(C)C(=CCC4[C@@]5(C)CC[C@H](O)C(C)(C)C5CC[C@]43C)C2[C@H]1C (some centres not stated) | > 4 mM (inactive) |
| NC1CCN(Cc2ccccc2)CC1 | > 4 mM (inactive) |
| O=c1[nH]oc2ccccc12 | > 4 mM (inactive) |
| CN1C(=O)CC(=O)N(C)c2ccccc21 | > 4 mM (inactive) |
| CN(C)C(=O)CSc1cccc2cccnc12 | > 4 mM (inactive) |
| NC(=O)C1CCN(c2ccc(Cl)nn2)CC1 | > 4 mM (inactive) |
| COc1cccc(N2CCNCC2)c1 | > 4 mM (inactive) |
| Cc1ccc(C2NS(=O)(=O)N=C2N)cc1 (configuration not stated) | > 4 mM (inactive) |
| Cc1cc(C)c(C#N)c(N2CCCC2)n1 | > 4 mM (inactive) |
| CSc1nc(=O)[nH]c2c1CCC2 | > 4 mM (inactive) |
| O=C(NCc1n[nH]c(=O)c2ccccc12)C1CC1 | > 4 mM (inactive) |
| CC(=O)O[C@@H]1C=C[C@@]2(C)C(C[C@@H](OC(C)=O)[C@@]3(C)C4=CC(=O)O[C@@H](c5ccoc5)[C@]4(C)CCC23)C1(C)C (some centres not stated) | > 4 mM (inactive) |
| COc1ccc2c(c1)OC/C(=C/c1ccc(OC)c(OC)c1)C2=O | > 4 mM (inactive) |
| NC(=O)Cn1nc2c3c(cccc3c1=O)-c1ccccc1-2 | > 4 mM (inactive) |
| Cc1cc(=O)oc2cc(O)c(O)cc12 | > 4 mM (inactive) |
| COc1cc(/C=C2\SC(=S)NC2=O)ccc1O | > 4 mM (inactive) |
| O=C(Nc1cccc2ncccc12)c1cccnc1 | > 4 mM (inactive) |
| COc1c(-c2ccccc2)oc2c(OC)cccc2c1=O | > 4 mM (inactive) |
| Cn1cnc2nc3n(c2c1=O)CCC3 | > 4 mM (inactive) |
| COc1cccc(=O)c2c(C)n(C)c(C)c12 | > 4 mM (inactive) |
| CCOC(=O)CNc1ncnc2c1nnn2CC | > 4 mM (inactive) |
| COc1cccc(O)c1O | > 4 mM (inactive) |
| CC(=O)c1cccc(NC(=O)NN2CCOCC2)c1 | > 4 mM (inactive) |

| SMILES | Kd |
| --- | --- |
| S=C(NCc1ccco1)NN1CCOCC1 | > 4 mM (inactive) |
| CC(CCC(=O)O)[C@H]1CCC2C3CC[C@@H]4C[C@H](O)CC[C@]4(C)C3CC[C@@]21C (some centres not stated) | > 4 mM (inactive) |
| CC(=O)c1c(C)nc2ccccc2c1N | > 4 mM (inactive) |
| Cc1ccc(C)n1NC(=O)c1ccco1 | > 4 mM (inactive) |
| O=C1NC(=O)/C(=C/c2ccc(O)cc2)N1 | > 4 mM (inactive) |
| Cc1ccc(-c2cc(C(=O)N3CCCC3)no2)cc1 | > 4 mM (inactive) |
| COc1cc2c(c(OC)c1OC)-c1ccc(O)c(=O)cc1[C@@H](NC(C)=O)CC2 | > 4 mM (inactive) |
| CCOc1ccc(N2C(=O)CCC2=O)cc1 | > 4 mM (inactive) |
| Cc1noc(C)c1C(=O)NCc1cccs1 | > 4 mM (inactive) |
| O=C1NC(=S)NC(=O)C1=Cc1ccco1 | > 4 mM (inactive) |
| NC(=O)CSc1ccc2nnc(-c3ccccc3)n2n1 | > 4 mM (inactive) |
| N/N=C/c1cccnc1 | > 4 mM (inactive) |
| Oc1cccc(N2CCOCC2)c1 | > 4 mM (inactive) |
| COC(=O)C[C@H]1C(C)(C)C(=O)[C@@H]2CC3=C(CC[C@]4(C)C3=CC(=O)O[C@H]4c3ccoc3)C1(C)C2=O | > 4 mM (inactive) |
| COCC(=O)Nc1c(C(N)=O)oc2ccccc12 | > 4 mM (inactive) |
| Nc1nnc(Cc2ccc(Cl)cc2)s1 | > 4 mM (inactive) |
| COc1cc2nc(N3CCNCC3)nc(N)c2cc1OC | > 4 mM (inactive) |
| COc1ccc(CN2CCOCC2)c(C)c1C | > 4 mM (inactive) |
| O=C1NC(=Nc2ccc(O)cc2)S/C1=C/c1ccco1 | > 4 mM (inactive) |
| CCCNC(CC(=O)Nc1cccnc1)C(=O)O (configuration not stated) | > 4 mM (inactive) |
| Cn1nnc2cc(CO)ccc21 | > 4 mM (inactive) |
| COc1ccc(Cc2nccc3cc(OC)c(OC)cc23)cc1OC | > 4 mM (inactive) |
| Cc1nc(-c2cnccn2)sc1C(=O)O | > 4 mM (inactive) |
